# Measurements: publication PMC7195871 (ACS synthetic biology, 2018)
# How the values were obtained:
# [1] = target: T1, PCM-F (pivalyl-CoA mutase fusion protein) (Xanthobacter versatilis, UniProt A7IQE5+A7IQE6); assay: mutase conversion assay in crude E. coli lysate; format: biochemical; conditions: vitamin B12-dependent mutase; without G-protein chaperone
# T1 sequence (A7IQE5 1-559): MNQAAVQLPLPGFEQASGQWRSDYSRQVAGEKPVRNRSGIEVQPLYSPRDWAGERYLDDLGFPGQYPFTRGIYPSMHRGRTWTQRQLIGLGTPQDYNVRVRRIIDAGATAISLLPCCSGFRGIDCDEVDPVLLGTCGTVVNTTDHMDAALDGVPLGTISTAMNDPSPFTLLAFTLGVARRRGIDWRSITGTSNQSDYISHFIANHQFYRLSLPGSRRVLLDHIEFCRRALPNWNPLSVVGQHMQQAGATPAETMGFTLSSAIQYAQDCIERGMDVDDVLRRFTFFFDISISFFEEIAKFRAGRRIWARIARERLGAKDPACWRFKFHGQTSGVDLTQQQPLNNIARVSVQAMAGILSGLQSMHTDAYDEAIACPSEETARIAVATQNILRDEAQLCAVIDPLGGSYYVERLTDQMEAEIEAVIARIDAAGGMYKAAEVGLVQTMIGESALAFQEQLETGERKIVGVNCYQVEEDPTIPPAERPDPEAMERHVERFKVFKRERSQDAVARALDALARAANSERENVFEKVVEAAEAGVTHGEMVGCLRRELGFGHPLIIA
# T1 sequence (A7IQE6 1-148): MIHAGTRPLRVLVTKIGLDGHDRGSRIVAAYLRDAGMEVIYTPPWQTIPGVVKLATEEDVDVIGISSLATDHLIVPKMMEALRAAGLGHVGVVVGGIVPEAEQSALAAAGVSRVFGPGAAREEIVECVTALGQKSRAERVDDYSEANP
# Ralstonia sp. ADH = target: T2, Ralstonia sp. ADH (Ralstonia sp. DSMZ 6428, UniProt C0IR58); assay: alcohol dehydrogenase assay, aldehyde reduction; format: biochemical; conditions: reduction of pivaldehyde to pivalcohol
# T2 sequence (C0IR58 1-249): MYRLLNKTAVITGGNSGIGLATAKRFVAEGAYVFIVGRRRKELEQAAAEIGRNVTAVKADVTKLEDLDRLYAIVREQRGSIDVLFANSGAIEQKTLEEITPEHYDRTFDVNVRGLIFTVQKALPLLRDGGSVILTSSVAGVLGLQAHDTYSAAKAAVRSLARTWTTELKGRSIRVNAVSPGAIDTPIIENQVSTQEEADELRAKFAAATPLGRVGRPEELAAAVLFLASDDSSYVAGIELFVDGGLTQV
Structure (SMILES),mutase conversion assay in crude E. coli lysate [1],"alcohol dehydrogenase assay, aldehyde reduction (Ralstonia sp. ADH)"
CC(C)CC(=O)SCCNC(=O)CCNC(=O)[C@H](O)C(C)(C)COP(=O)(O)OP(=O)(O)OC[C@H]1O[C@@H](n2cnc3c(N)ncnc32)[C@H](O)[C@@H]1OP(=O)(O)O [isovaleryl-CoA],significant activity in converting isovaleryl-CoA to pivalyl-CoA in crude cell lysates,–
CC(C)(C)C=O [pivaldehyde],–,Ralstonia sp. ADH showed the highest activity toward pivaldehyde
CC(C)(C)C(=O)SCCNC(=O)CCNC(=O)[C@H](O)C(C)(C)COP(=O)(O)OP(=O)(O)OC[C@H]1O[C@@H](n2cnc3c(N)ncnc32)[C@H](O)[C@@H]1OP(=O)(O)O [pivalyl-CoA],significant activity in converting isovaleryl-CoA to pivalyl-CoA in crude cell lysates,–
